What was measured:
U87-MG and SK-MG cells = assay: [^3H]-thymidine incorporation; format: cell-based, human; details: same concentration range (10-100 μM)
Source text: (§1) If the Na^+ conductance seen in high-grade glioma cells was required or linked to the high rate of cell growth, inhibition of the pathway should result in inhibition of cell growth and/or cell death. […] However, benzamil is ineffective in inhibiting Na^+/H^+ exchange in glial cells (73), yet still can inhibit proliferation in this assay. […] Therefore, inhibition of the inward Na^+ current results in inhibition and/or stoppage of cell growth. These observations establish the importance of this pathway in tumor cell biology.

U87-MG cells = assay: Transwell Migration Assay, U87-MG cells; format: cell-based, human; details: concentration-dependent
[1] = system: SKMG, U373, and U251 glioma cell lines; assay: MTT Cell Proliferation Assay, three GBM cell lines; format: cell-based, human; details: drug concentrations between 10-100 μM
Protocol: Cells were plated in 96-well plates at 1000, 4000, and 2000 cells/well for SK-MG, U373, and U251 cells, respectively. Drug was added at specified concentration on day 3 after plating (at the beginning of log phase of growth).
as §1

[2] = Activity of tyrosine-extended PcTX1 compared with unmodified PcTX1
ASIC1+ASIC2+γ-hENaC = target: T1, ASIC1+ASIC2+γ-hENaC (Homo sapiens, UniProt P51170+P78348+Q16515); assay: ASIC1+ASIC2+γ-hENaC in planar lipid bilayers; format: biochemical; details: 25 μM, cis bathing solution; γ-hENaC co-expressed with ASIC1/2
T1 construct: made in house; host or cells: Xenopus oocytes (membrane vesicles)
T1 sequence (Q16515 whole entry): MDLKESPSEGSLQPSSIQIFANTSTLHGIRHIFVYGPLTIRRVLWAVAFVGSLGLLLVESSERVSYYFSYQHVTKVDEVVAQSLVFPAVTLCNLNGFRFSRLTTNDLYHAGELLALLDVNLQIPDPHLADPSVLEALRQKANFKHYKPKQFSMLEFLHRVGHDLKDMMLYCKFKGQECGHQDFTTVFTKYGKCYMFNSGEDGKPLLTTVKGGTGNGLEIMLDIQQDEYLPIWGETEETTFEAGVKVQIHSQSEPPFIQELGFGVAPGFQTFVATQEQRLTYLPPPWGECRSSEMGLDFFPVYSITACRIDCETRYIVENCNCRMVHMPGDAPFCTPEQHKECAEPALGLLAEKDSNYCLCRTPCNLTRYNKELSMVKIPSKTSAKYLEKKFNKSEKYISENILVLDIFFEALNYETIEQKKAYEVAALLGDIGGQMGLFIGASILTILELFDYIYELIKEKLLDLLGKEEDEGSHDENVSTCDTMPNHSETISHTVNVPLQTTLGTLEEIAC
T1 sequence (P78348 whole entry): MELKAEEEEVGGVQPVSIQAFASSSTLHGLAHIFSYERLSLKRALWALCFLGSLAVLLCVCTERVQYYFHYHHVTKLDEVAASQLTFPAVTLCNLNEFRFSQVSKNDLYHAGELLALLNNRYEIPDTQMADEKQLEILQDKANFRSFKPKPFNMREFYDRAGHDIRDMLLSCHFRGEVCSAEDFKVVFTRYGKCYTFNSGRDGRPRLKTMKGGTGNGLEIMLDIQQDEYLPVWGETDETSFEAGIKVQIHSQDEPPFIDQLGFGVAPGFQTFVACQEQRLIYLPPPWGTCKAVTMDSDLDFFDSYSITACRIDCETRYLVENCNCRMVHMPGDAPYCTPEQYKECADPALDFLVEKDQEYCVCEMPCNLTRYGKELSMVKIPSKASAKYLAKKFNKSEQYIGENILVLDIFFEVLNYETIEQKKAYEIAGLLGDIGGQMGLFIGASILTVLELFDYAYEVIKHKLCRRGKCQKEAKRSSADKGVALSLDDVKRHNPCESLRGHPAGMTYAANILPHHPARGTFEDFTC
T1 sequence (P51170 whole entry): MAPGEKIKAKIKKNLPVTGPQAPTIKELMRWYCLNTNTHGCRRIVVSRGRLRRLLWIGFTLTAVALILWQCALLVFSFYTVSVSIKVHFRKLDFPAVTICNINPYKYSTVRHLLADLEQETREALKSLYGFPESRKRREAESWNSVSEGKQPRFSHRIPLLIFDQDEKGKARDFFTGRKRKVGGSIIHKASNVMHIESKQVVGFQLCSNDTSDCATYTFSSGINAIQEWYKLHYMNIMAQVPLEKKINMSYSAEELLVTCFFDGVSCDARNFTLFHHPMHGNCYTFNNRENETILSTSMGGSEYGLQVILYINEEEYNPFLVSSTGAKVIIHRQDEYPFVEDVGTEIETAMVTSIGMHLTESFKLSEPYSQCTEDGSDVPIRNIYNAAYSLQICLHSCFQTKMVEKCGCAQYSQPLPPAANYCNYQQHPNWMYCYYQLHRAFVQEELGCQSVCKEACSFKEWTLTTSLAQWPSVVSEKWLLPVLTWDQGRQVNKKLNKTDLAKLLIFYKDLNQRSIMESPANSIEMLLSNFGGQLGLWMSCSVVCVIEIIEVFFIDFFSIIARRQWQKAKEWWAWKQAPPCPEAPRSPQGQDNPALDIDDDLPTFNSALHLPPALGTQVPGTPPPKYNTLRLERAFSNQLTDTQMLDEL
Protocol: FIGS. 14A and B show the effect of syntaxin 1A on ASIC1+ASIC2 (FIG. 14A) and ASIC1+ASIC2+γ-hENaC (FIG. 14B) in planar lipid bilayers. The holding potential was +100 mV and records were filtered at 200 Hz.
The effect of syntaxin 1A on constitutive amiloride-sensitive inward Na^+ current activity in planar lipid bilayers was examined (FIGS. 14A and B). For these experiments, membrane vesicles were prepared from oocytes that were previously injected with cRNA encoding both ASIC1 and ASIC2±γ-hENaC. […] Syntaxin 1A was then added as a GST fusion protein to the cis (or cytoplasmic) bathing solution. […] The same results were found in oocyte expression studies (FIG. 15).

## N=C(N)NC(=O)c1ncc(N)nc1N [N-amidino-3,5-diamino-pyrazinecarboxamide]
U87-MG and SK-MG cells
  [^3H]-thymidine incorporation: did not affect
U87-MG cells
  Transwell migration: did not

## NC(=Nc1ccccc1)NC(=O)c1nc(Cl)c(N)nc1N [phenamil]
[1]
  relative rate of proliferation: significantly inhibited

## SEQ ID NO. 2: PcTX1 with a tyrosine residue or other residue at one end to aid linking to the tag protein (EDCIPKWKGCVNRHGDCCEGLECWKRRRSFEVCVPKTPKTY; listed as Psalmopoeus cambridgei)
[2]
  activity relative to unmodified PcTX1: identical to the unmodified PcTX1 sequence

B1: syntaxin 3: syntaxin family member used as specificity control (protein, UniProt Q13277 1-289, looked up)
Syntaxin-3: MKDRLEQLKAKQLTQDDDTDAVEIAIDNTAFMDEFFSEIEETRLNIDKISEHVEEAKKLYSIILSAPIPEPKTKDDLEQLTTEIKKRANNVRNKLKSMEKHIEEDEVRSSADLRIRKSQHSVLSRKFVEVMTKYNEAQVDFRERSKGRIQRQLEITGKKTTDEELEEMLESGNPAIFTSGIIDSQISKQALSEIEGRHKDIVRLESSIKELHDMFMDIAMLVENQGEMLDNIELNVMHTVDHVEKARDETKKAVKYQSQARKKLIIIIVLVVVLLGILALIIGLSVGLN
ASIC1+ASIC2+γ-hENaC
  inhibition of channel Po: without effect
